pKd: −log10 of the molar value. Like-named read-outs stand apart in the source and are kept apart here. Where a SMILES comes first, the peptide text is derived from it. Where no end group is shown, it is not given here. [ ]: non-standard residue; d: D form.
Columns and labels:
[1] = tested on: VCaP (ERG fusion-positive) xenografts; experiment: VCaP xenograft mouse model, tumor growth; settings: 20 mg/kg dose, p<0.01
Method: Athymic Nude-Foxnlnu male mice were procured from Harlan Laboratories, Inc (Indianapolis, Ind.). All procedures involving mice were approved by the University Committee on Use and Care of Animals (UCUCA) at the University of Michigan and conformed to their relevant regulatory standards. […] Statistical significance for Kaplan-Meier analysis was determined by the log-rank (Mantel-Cox) test.
Athymic Nude-Foxnlnu male mice were procured from Harlan Laboratories, Inc. (Indianapolis, Ind.). VCaP (2×10^6 cells) or PC3 (5×10^5 cells) were resuspended in 100 μl of saline with 50% Matrigel (BD Biosciences, Becton Drive, NJ) and implanted subcutaneously into the flank regions on both sides of the mice. Mice were anesthetized using a cocktail of xylazine (80-120 mg/kg, IP) and ketamine (10 mg/kg, IP) for chemical restraint before tumor cells implantation. For short term assays, all tumors were staged for three weeks before starting peptidomimetic treatment. After week 3 (VCaP cells) or 12 days (PC3 cells), mice (10 per treatment group) were treated with peptidomimetics (25 mg/kg or 10 mg/kg as indicated, IP) daily five times a week.
Tumor growth was recorded every three days using digital calipers and tumor volumes were calculated using the formula (π/6) (L×W2), where L=length of tumor and W=width. Body weight was monitored weekly over the course of the study. At the end of the xenograft studies, mice were anaesthetized and blood was collected by cardiac puncture and tumors were preserved for further biochemical and immunofluorescence analysis. […] Survival analysis was carried out using the GraphPad Prism 4.0 software (GraphPad Software, San Diego, Calif.). Statistical significance for Kaplan-Meier analysis was determined by the log-rank (Mantel-Cox) test. All procedures involving mice were approved by the University Committee on Use and Care of Animals (UCUCA) at the University of Michigan and conform to their relevant regulatory standards.

ERG [2] = molecular target: T1, ERG (Homo sapiens, UniProt P11308); experiment: ERG:peptide binding by biolayer interferometry (OctetRED); settings: for binding to ERG: OctetRED, result in words
T1 sequence (P11308 1-479): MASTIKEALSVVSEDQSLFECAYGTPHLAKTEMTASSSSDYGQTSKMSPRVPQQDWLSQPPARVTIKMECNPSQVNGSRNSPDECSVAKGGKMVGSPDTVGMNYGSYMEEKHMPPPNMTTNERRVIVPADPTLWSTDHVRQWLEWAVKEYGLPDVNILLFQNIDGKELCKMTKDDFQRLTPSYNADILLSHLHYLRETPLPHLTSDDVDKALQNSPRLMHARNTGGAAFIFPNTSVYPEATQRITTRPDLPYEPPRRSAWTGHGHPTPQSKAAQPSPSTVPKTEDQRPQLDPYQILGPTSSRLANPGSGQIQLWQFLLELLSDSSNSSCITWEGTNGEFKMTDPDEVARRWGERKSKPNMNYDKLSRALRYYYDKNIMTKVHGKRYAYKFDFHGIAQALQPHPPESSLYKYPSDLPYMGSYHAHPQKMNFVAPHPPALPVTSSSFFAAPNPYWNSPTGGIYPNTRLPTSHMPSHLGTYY
Method: (§1) The interaction coefficients between ERG and synthetic peptides or peptidomimetics were determined by biolayer interferometry technology using the Octet Red system (ForteBio). Purified ERG and GUS proteins were biotinylated by EZLink NHS-PEG4 Biotinylation Kit (Thermo Scientific) following the manufacturer's protocol and any unincorporated biotin was removed from the reactions with Zeba 2 ml desalt columns (Thermo). Biotinylated proteins (500 μg/ml) were then incubated with super streptavidin biosensors in binding buffer (20 mM HEPES pH 7.4, 150 mM NaCl), blocked with 10 μg/ml biocytin and washed three times in binding buffer. Peptides were serially diluted in binding buffer, mixed with the protein-coupled biosensors and peptidomimetic:protein association/dissociation was monitored for 10 min at 25° C. Nonspecific binding from the signal obtained from peptidomimetic:GUS interactions was subtracted from that of peptidomimetic:ERG interactions and baseline signal drift was controlled by monitoring immobilized ERG without peptide. Octet Red analysis software was used to analyze the data.

ERG in VCaP cells [3] = molecular target: T2, ERG in VCaP cells (Homo sapiens, UniProt P11308); experiment: Immunoblot of ERG protein in treated VCaP cells; settings: proteasome inhibitor co-treatment
Method: (§2) VCaP cells were seeded in 6-well plates at 0.5×10^6 cells/ml and after allowing cells to attach, cells were harvested and homogenized in NP40 lysis buffer (Sigma) containing a complete protease inhibitor cocktail (Roche). Ten micrograms of each protein extract was boiled in SDS sample buffer, size fractionated by SDS-PAGE, and transferred onto a PVDF membrane (GE Healthcare). […] Following three washes in TBS-T, the blots were incubated with horseradish peroxidase conjugated secondary antibody and the signals visualized by enhanced chemiluminescence system according to manufacturer's instructions (GE Healthcare).

ERG [4] = molecular target: T3, ERG (Homo sapiens, UniProt P11308); experiment: Kd[μM]
T3 construct: cDNAs encoding full-length ERG and GUS were cloned into pDEST10 vector; His; made in house; host or cells: SF9 insect cells (Bac-to-Bac baculovirus)
From the text: Table printed on a drawing sheet, FIG. 13
Head of the field: Kd[μM]
Where the first naming reader finds the target: passage: Capping of the EIP1 peptide at both the N- and C-terminus abolished binding to ERG (FIG. 13).

ERG [5] = molecular target: T3, ERG; experiment: Kd[μM]; remark: listed apart in the source
From the text: Table printed on a drawing sheet, FIG. 14 Head of the field: Kd[μM] […] Where the first naming reader finds the target: passage: the importance of the PYL residues for binding to ERG was identified

ERG:AR interaction [6] = molecular target: T4, ERG:AR interaction (Homo sapiens, UniProt P11308); experiment: In vitro peptide competitive pull-down assay (cell-free); settings: Halo-ERG with recombinant AR, increasing peptide concentrations
T4 sequence (P11308 1-479): T1 sequence (P11308 1-479)
Method: (§3) Halo-ERG fusion protein was expressed using in vitro transcription/translation system as described above. […] Protein mixtures were incubated with or without the peptides in PBS-T (0.1% Tween) at 4° C. overnight. Simultaneously, HaloLink beads (Promega) were blocked in 5% BSA at 4° C. overnight. The next day 10 μl of HaloLink beads were mixed with the protein-peptide mixture, incubated at RT for 1 hour, washed with 4× in PBS-T and eluted into SDS sample buffer. […] HaloLink beads without incubation with fusion proteins were used as negative controls.

ERG:DNA-PKcs interaction [7] = molecular target: T5, ERG:DNA-PKcs interaction (Homo sapiens, UniProt P11308); experiment: as above; settings: Halo-ERG with purified DNA-PKcs, increasing peptide concentrations
T5 sequence (P11308 1-479): T1 sequence (P11308 1-479)
Method: as §3

ERG:DNA-PKcs interaction [8] = molecular target: T5, ERG:DNA-PKcs interaction
Method: as §3
ERG:AR interaction [9] = molecular target: T4, ERG:AR interaction
Method: as §3

[10] = tested on: Ewing sarcoma cells containing the EWS-ERG fusion; type: cell-based
From the text: (A) Pull down of ERG in Ewing sarcoma cells containing a EWS-ERG fusion and reduced tumor growth in xenografts models of Ewing sarcoma. (B) Tumors containing the EWS-FLI1 fusion or osteosarcomas (A204) are not affected by treatments with peptides of the disclosure. […] Similarly, invasion potential was reduced by EIP1 and EIP2 treatment in Ewing sarcoma cells containing the EWS-ERG fusion.

ERG:EBS DNA interaction = molecular target: T6, ERG:EBS DNA interaction (Homo sapiens, UniProt P11308); type: biochemical
T6 construct: endogenous in cells; host or cells: VCaP cells (ATCC): cultured cells, lysates or extracts, or VCaP xenograft tumours in nude mice
Method: To determine the inhibitory activity of the peptide against the ERG:DNA interaction, electrophoretic mobility shift assays (EMSAs) were performed. Double stranded ERG ETS binding sequence (5′ […] 3′ (SEQ ID NO:109)) was end labeled using Biotin 3′ End DNA Labeling Kit (Pierce). For each binding reaction, VCaP cell extract was incubated with 1 μg poly d (I-C), 2 μl of EMSA binding buffer (1.5% glycerol, 75 mM KCl, 0.375 mM DTT, 12.5 mM NaCl, 0.375 mM phenylmethylsulfonyl fluoride [PMSF]) and 5 μM biotin-labeled EBS in the presence or absence of the peptides as indicated for 30 min at room temperature. The reaction mixtures were loaded onto 6% TBE gels (Invitrogen) and electrophoresed at 120 V for 2 hr at 4° C. in […] Tris-Borate-EDTA (TBE). Probes were transferred to nylon membrane (Biodyne B, Pall) in a semidry blotting device at 300 mA for 30 min. The membrane was baked for 30 min at 85° C. in a dry oven. Biotinylated oligonucleotides were detected by probing with streptavidin-conjugated horseradish peroxidase and visualized by enhanced chemiluminescence (Pierce).

ERG_Y373A = ERG_Y373A (Homo sapiens, UniProt P11308, Y373A); experiment: biochemical; type: binding
Sequence of ERG_Y373A (P11308 whole entry Y373A, the tested form may be a part): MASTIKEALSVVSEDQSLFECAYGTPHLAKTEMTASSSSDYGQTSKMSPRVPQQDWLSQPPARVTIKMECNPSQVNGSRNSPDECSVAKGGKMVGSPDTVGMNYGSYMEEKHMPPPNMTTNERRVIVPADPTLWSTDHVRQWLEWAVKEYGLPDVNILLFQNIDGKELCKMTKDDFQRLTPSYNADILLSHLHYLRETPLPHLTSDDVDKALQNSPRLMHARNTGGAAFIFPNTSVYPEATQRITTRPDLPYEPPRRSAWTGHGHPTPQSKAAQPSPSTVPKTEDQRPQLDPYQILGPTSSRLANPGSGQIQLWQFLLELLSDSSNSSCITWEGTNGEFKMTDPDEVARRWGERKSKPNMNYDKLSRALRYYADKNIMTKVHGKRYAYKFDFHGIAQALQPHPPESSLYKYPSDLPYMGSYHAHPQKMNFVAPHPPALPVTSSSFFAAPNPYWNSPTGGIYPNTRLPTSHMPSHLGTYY
Method: as §1

[11] = tested on: cells containing the EWS-FLI1 fusion; experiment: DNA damage in Ewing sarcoma cells; type: cell-based
VCaP cells = experiment: Immunofluorescence confocal microscopy of FITC-labeled peptide uptake; type: cell-based; settings: FITC-labeled peptides
Method: After 2 hours incubation, cells were washed two times in PBS, and fixed for 15 min in 100% methanol. After washing an additional three times in PBS, cells were mounted using Vectashield with DAPI (Vector laboratories). Images were captured using 100× oil objective lens on an Olympus Confocal microscope at the University of Michigan microscopy imaging lab.

ERG in VCaP cells [12] = molecular target: T2, ERG in VCaP cells
Method: The following primary and secondary antibodies were used: mouse-anti-ERG (Biocare) and goat-anti-mouse-Cy5 (Jackson Immuno-Research) respectively. […] Emission from individual fluorophores was detected sequentially. Image processing was performed in Imaris and colocalization analysis was done in Imaris (Bitplane). Colocalization was calculated as the percentage of FITC spots that colocalized with ERG spots in the nucleus.

RWPE1-ERG cells = experiment: Boyden chamber basement membrane matrix invasion assay
Method: (§4) Complete media was added to the lower chamber as a chemoattractant. […] Invasive cells, located on the lower side of the membranes, were stained with crystal violet, air dried and photographed. To quantify the relative number of invaded cells, colorimetric assays were performed by treating the inserts with 150 μl of 10% acetic acid (v/v) and measuring absorbance of each sample in a spectrophotometer at 560 nm (GE Healthcare).
ERG:AR interaction [13] = molecular target: ERG:AR interaction (Homo sapiens, UniProt P11308); experiment: IP-Western blot in VCaP cells
Method: as §2
(§5) Cell pellets or tumors treated with or without the peptidomimetics were lysed in cell lysis buffer (20 mM MOPS, pH 7.0, 2 mM EGTA, 5 mM EDTA, 30 mM sodium fluoride, 60 mM β-glycerophosphate, 20 mM sodium pyrophosphate, 1 mM sodium orthovanadate, 1% Triton X-100, 1 mM DTT, protease inhibitor cocktail (Roche)). Cell lysates (0.5-1.0 mg) were pre-cleaned with protein A/G agarose beads (Santa Cruz) by incubation for 1 hour with shaking at 4° C. followed by centrifugation at 2000 rpm for 3 minute. Lysates were then incubated with 2 μg ERG antibody (Santa Cruz, C-17) at 4° C. for 4 hours with shaking prior to addition of 20 μl protein A/G agarose beads and incubated at 4° C. overnight. […] Samples were then analyzed by SDS-PAGE and Western blot analysis as described above.

PC3-ERG cells = experiment: Boyden chamber basement membrane matrix invasion assay
Method: as §4
ERG:DNA-PKcs interaction [14] = molecular target: T7, ERG:DNA-PKcs interaction (Homo sapiens, UniProt P11308); experiment: IP-Western blot in VCaP cells
T7 sequence (P11308 33-479 limits assumed): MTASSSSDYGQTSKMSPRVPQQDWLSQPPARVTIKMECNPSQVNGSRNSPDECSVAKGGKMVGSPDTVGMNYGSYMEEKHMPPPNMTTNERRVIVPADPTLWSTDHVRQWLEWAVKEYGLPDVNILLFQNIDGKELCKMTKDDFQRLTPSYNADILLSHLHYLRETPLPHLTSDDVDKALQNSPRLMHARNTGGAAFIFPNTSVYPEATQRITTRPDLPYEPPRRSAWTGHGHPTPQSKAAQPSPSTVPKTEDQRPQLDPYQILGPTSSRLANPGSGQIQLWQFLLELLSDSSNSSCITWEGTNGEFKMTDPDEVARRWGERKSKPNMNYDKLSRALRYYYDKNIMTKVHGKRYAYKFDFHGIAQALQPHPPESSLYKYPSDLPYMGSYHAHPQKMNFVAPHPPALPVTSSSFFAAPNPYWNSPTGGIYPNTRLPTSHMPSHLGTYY
Method: as §2, §5

[15] = molecular target: T8, TMPRSS2:ERG gene fusion product (endogenous ERG) (Homo sapiens, UniProt P11308); experiment: Biotin-peptide pull-down from VCaP cell lysates, immunoblot and mass spectrometry; type: binding; settings: 53 kDa band of pull-downs, mass spectrometry
T8 construct: endogenous in cells; host or cells: VCaP cells (ATCC): cultured cells, lysates or extracts, or VCaP xenograft tumours in nude mice
Method: Approximately 1 mg of soluble VCaP cell lysate prepared in RIPA buffer (Invitrogen) was incubated with varying amounts of biotinylated peptides for 2 hours at 4° C. HaloLink agarose beads (20 μl) were added to the peptide-lysate mixture and incubated for an additional 4 hours. Beads were then pelleted by centrifugation, washed three times in PBS-T and loaded into an SDSPAGE gel followed by Western blot analysis. Total VCaP cell lysate was loaded for positive control.
The samples were treated with SDS loading buffer supplied with 10 mM DTT for 5 min at 85° C. The proteins were alkylated by adding iodoacetamide to the final concentration of 15 mM. The samples were subjected to SDS-PAGE and the whole lanes were cut out and digested with trypsin in-gel for 2 hours. […]
The resulting spectrum files were transformed into MGF format by MSConvert software and interrogated by MASCOT 2.4 search engine using human UniProt database version 15 concatenated with reverse sequences for estimation of false discovery rate (FDR) and with a list of common contaminants. […] The peptide FDR was calculated as 2×(decoy_hits)/(target+decoy hits). Spectral counts for all detected proteins were assembled using an in-house written Python script. […]

CC(C)C[C@@H](NC(=O)[C@@H](CO)NC(=O)[C@@H](Cc1ccccc1)NC(=O)CNC(=O)[C@@H](CO)NC(=O)[C@@H](CC(C)C)NC(=O)[C@H]1CCCN1C(=O)CNC(=O)CNC(=O)[C@@H](CCCNC(=N)N)NC(=O)[C@@H](CCCCN)NC(=O)[C@@H](CCCCN)NC(=O)[C@@H](CCCNC(=N)N)NC(=O)[C@@H](CCCNC(=N)N)NC(=O)[C@@H](CCC(N)=O)NC(=O)[C@@H](CCCNC(=N)N)NC(=O)[C@@H](CCCNC(=N)N)NC(=O)[C@@H](CCCNC(=N)N)NC(=O)CN)C(=O)O [RI-EIP2] (H-G[dR][dR][dR][dQ][dR][dR][dK][dK][dR]GG[dP][dL][dS]G[dF][dS][dL]-OH)
tumor growth of VCaP xenografts [1]: significantly delayed tumor growth
pKd (ERG [2]): 5.89

CC(C)C[C@H](NC(=O)[C@H](CCc1ccccc1)NC(=O)CN1CCOCC1)C(=O)N[C@@H](Cc1ccccc1)C(=O)N[C@@H](CC(C)C)C(=O)[C@@]1(C)CO1 [carfilzomib]
effect on RI-EIP1-induced degradation of ERG protein (ERG in VCaP cells [3]): completely inhibited

Ac-LPPELFT-NH2 [7LT-4E, Ac- LPPELFT -NH2]
pKd (ERG [4]): 5.44

Ac-LPPYLF-NH2 [6LF-A, Ac- LPPYLF -NH2]
pKd (ERG [5]): < 4.00

FTFGSLP [FTFGSLP]
pKd (ERG [2]): 5.41

H-PPYLFT-NH2 [6PT-N, H2N- PPYLFT -NH2]
pKd (ERG [5]): 4.94

LPPALFT [muEIP1, LPPALFT]
disruption of direct ERG:AR interaction (ERG:AR interaction [6]): not
binding to ERG (ERG [2]): failed to bind
disruption of direct ERG:DNA-PKcs interaction (ERG:DNA-PKcs interaction [7]): not

LPPTFLY [Scr, LPPTFLY, reference compound]
binding to ERG (ERG [2]): failed to bind

LPPYLFT [EIP1, LPPYLFT]
disruption of direct ERG:DNA-PKcs interaction (ERG:DNA-PKcs interaction [8]): disrupted
disruption of direct ERG:AR interaction (ERG:AR interaction [9]): disrupted
DNA damage caused by oncogenic ERG (EWS-ERG fusion) [10]: reduce DNA damage
invasion potential [10]: reduced
Kd (ERG [2]; OctetRED biolayer interferometry, values in text): 0.6 µM
disruption of ERG:EBS DNA interaction (ERG:EBS DNA interaction): effectively disrupted
pKd (ERG_Y373A): < 4.00
DNA damage in cells containing the EWS-FLI1 fusion [11]: no effect
entry into VCaP cells (VCaP cells): did not penetrate the cell membrane
extent of green-red colocalization in the nucleus (ERG in VCaP cells [12]): 78±5%

LPPYLFTGGRKKRRQRRRG [TAT-EIP1]
invasion of RWPE1-ERG cells (RWPE1-ERG cells): significantly attenuated
block of ERG:AR interaction in VCaP cells (ERG:AR interaction [13]): significantly blocked
PC3 cell invasion driven by overexpression of ERG (PC3-ERG cells): inhibited
block of ERG:DNA-PKcs interaction in VCaP cells (ERG:DNA-PKcs interaction [14]): significantly blocked

LRFGTLP [LRFGTLP]
pKd (ERG [2]): 5.10

LSAGSAP [muEIP2, LSAGSAP, reference compound]
spectral counts for the ERG peptide NTGGAAFIFPNTSVYPEATQR [15]: 2 spectral counts
binding to ERG (ERG [2]): failed to bind

LSFGSLP [EIP2, LSFGSLP]
disruption of direct ERG:DNA-PKcs interaction (ERG:DNA-PKcs interaction [8]): disrupted
disruption of direct ERG:AR interaction (ERG:AR interaction [9]): disrupted
DNA damage caused by oncogenic ERG (EWS-ERG fusion) [10]: reduce DNA damage
invasion potential [10]: reduced
DNA damage in cells containing the EWS-FLI1 fusion [11]: no effect

LSFGSLPGGRKKRRQRRRG [TAT-EIP2]
invasion of RWPE1-ERG cells (RWPE1-ERG cells): significantly attenuated
block of ERG:AR interaction in VCaP cells (ERG:AR interaction [13]): significantly blocked
PC3 cell invasion driven by overexpression of ERG (PC3-ERG cells): inhibited
block of ERG:DNA-PKcs interaction in VCaP cells (ERG:DNA-PKcs interaction [14]): significantly blocked

Reference: US10774122B2, “ERG targeted therapy” (The Regents of the University of Michigan, priority 2017, dated 2020)
